Test results: patent publication US20130316990A1, “USE OF VITAMIN D COMPOUNDS” (DSM IP ASSETS B.V., priority 2003, published 2013)
Marks after values point to notes of the source that are not given here.

Columns and labels:
growing-fattening pigs = experiment: Bone strength (Newton at the breaking point) in growing-fattening pigs fed supplemented diet, Example 1; format: in vivo; settings: for Strength - metacarpals and metatarsals, relative to group A (100) / Strength - metacarpals, relative to group A (100) / Strength - metatarsals, relative to group A (100): unmedicated basal diet = 100; for Strength - metacarpals / Strength - metatarsals: mean ± SD of 8 determinations; for Strength - metacarpals and metatarsals: mean ± SD of 16 determinations
Protocol: Growing-fattening pigs of an initial body weight of 64.8±5.03 kg were fed a diet based on maize, barley and soybean meal ad libitum for 34 days. Groups of 16 animals each were fed as follows:
A: basal diet (unmedicated),
B: basal diet+1,200 IU/kg vitamin D3
C: basal diet+30 μg/kg 25-hydroxy vitamin D3 (Hy.D® 1.25% Beadlet, Roche Vitamins AG, Basel, Switzerland)
D: basal diet+600 IU/kg vitamin D3+15 μg/kg 25-hydroxy vitamin D3 (Hy.D® 1.25% Beadlet, Roche Vitamins AG, Basel, Switzerland).
(§1) The effects of the addition of 25-hydroxy vitamin D3 and vitamin D3 to the diet were determined by measuring the strength (Newton at the breaking point) of the bones of the animals.

weaner piglets = experiment: Bone strength (Newton at the breaking point) in weaner piglets fed supplemented diet, Example 2; format: in vivo; settings: for Strength - femur: mean ± SD of 8 determinations
Protocol: Weaner piglets of an initial body weight of 8.4±1.2 kg were fed a diet based on maize, barley and soybean meal ad libitum for 33 days. Groups of 31 animals each were fed as follows:
A: basal diet+1,000 IU/kg vitamin D3
B: basal diet+2,000 IU/kg vitamin D3
C: basal diet +40 μg/kg 25-hydroxy vitamin D3 (Hy.D® 1.25% Beadlet, Roche Vitamins AG, Basel, Switzerland)
D: basal diet+1,000 IU/kg vitamin D3+20 μg/kg 25-hydroxy vitamin D3 (Hy. D® 1.25% Beadlet, Roche Vitamins AG, Basel, Switzerland).
as §1

[1] = group B: 1,200 IU/kg vitamin D3, 34 days
[2] = group B: basal diet+1,200 IU/kg vitamin D3, 34 days
[3] = group C: 30 μg/kg 25-hydroxy vitamin D3, 34 days
[4] = group C: basal diet+30 μg/kg 25-hydroxy vitamin D3, 34 days

C=C1CC[C@H](O)C/C1=C/C=C1\CCC[C@]2(C)[C@@H]([C@H](C)CCCC(C)C)CC[C@@H]12 [vitamin D3]
Strength - metacarpals and metatarsals, relative to group A (100) (growing-fattening pigs; [1]): (107)
Strength - metacarpals, relative to group A (100) (growing-fattening pigs; [1]): (109)
Strength - metatarsals, relative to group A (100) (growing-fattening pigs; [1]): (105)
Strength - metacarpals (growing-fattening pigs; [2]): 463 ± 48^ce Newton
Strength - metatarsals (growing-fattening pigs; [2]): 553 ± 169 Newton
Strength - metacarpals and metatarsals (growing-fattening pigs; [2]): 508 ± 113^ac Newton
Strength - femur, relative to group A (100) (weaner piglets; group A: 1,000 IU/kg vitamin D3, 33 days, reference group = 100): (100)
Strength - femur, relative to group A (100) (weaner piglets; group B: 2,000 IU/kg vitamin D3, 33 days, 1,000 IU/kg vitamin D3 group = 100): (109)
Strength - femur (weaner piglets; group B: basal diet+2,000 IU/kg vitamin D3, 33 days): 873 ± 123^ab Newton

C=C1CC[C@H](O)C/C1=C/C=C1\CCC[C@]2(C)[C@@H]([C@H](C)CCCC(C)(C)O)CC[C@@H]12 [25-hydroxy vitamin D3]
strength of the bones of the growing-finishing pig (in words) (growing-fattening pigs; Example 1, addition to diet, 34 days): clearly improved
Strength - metacarpals and metatarsals, relative to group A (100) (growing-fattening pigs; [3]): (112)
Strength - metacarpals, relative to group A (100) (growing-fattening pigs; [3]): (123)
Strength - metatarsals, relative to group A (100) (growing-fattening pigs; [3]): (103)
Strength - metacarpals (growing-fattening pigs; group C: basal diet+30 μg/kg 25-hydroxy vitamin D3 (Hy.D 1.25% Beadlet), 34 days): 520 ± 72^df Newton
Strength - metatarsals (growing-fattening pigs; [4]): 545 ± 105 Newton
Strength - metacarpals and metatarsals (growing-fattening pigs; [4]): 533 ± 88^ac Newton
Strength - femur, relative to group A (100) (weaner piglets; group C: 40 μg/kg 25-hydroxy vitamin D3, 33 days, 1,000 IU/kg vitamin D3 group = 100): (100)
Strength - femur (weaner piglets; group C: basal diet+40 μg/kg 25-hydroxy vitamin D3 (Hy.D 1.25% Beadlet), 33 days): 803 ± 82^a Newton
